According to paper PMC10855902 (International Journal of Molecular Sciences, 2024):

Tested on: anti-EGF rabbit polyclonal antibodies (Abcam 9695)
Assay: Dot blot of cellulose-immobilized EGF decapeptides with anti-EGF polyclonal antibodies;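 for Intensity (Staining Value): higher gray value means stronger antibody binding with above 120 very strong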
Format: binding
Conditions: for Intensity (ability to interact with polyclonal antibodies) / interaction with polyclonal anti-EGF antibodies (in words): peptide on cellulose matrix; for Intensity (ability to interact with polyclonal antibodies): antibody 1:1000, 1 h room temperature; for Intensity (Staining Value): scanned spot, 256 gray scale (ImageJ)
Protocol: Dot blot reactions were performed using primary anti-EGF rabbit polyclonal antibodies (Abcam 9695) (Cambridge, UK) and secondary goat anti-rabbit antibodies conjugated with HRP (Abcam 205718). The procedure for using the dot blot method to analyze peptides immobilized on a cellulose matrix through a triazine linker was optimized in a previous study by the authors and ensures the elimination of non-specific impacts.
The solution was then removed, and the membranes were treated overnight at room temperature with blocking buffer (3% BSA in PBS, 40 mL, pH 7.4). The cellulose sheets were then washed with PBS buffer (40 mL, 5 min, pH 7.4). […] The membranes were then washed with Tween-80 solution in PBS (0.4%, 40 mL, 2 × 5 min) and PBS (40 mL, 5 min). Goat Anti-Rabbit IgG antibodies were conjugated with HRP (Abcam 205718, 20 μL) diluted 1:1000 in 1% BSA in PBS (20 mL, pH 7.4) and then incubated with cellulose sheets for 30 min at room temperature. The membranes were then washed with Tween-80 solution in PBS (0.4%, 40 mL, 2 × 5 min) and PBS (40 mL, 5 min). Visualization of the reactions was performed using 4-chloro-1-naphtol (Sigma–Aldrich). The cellulose sheets were placed into 0.15 mg/mL solution of 4-chloro-1-naphtol in MeOH:PBS (1:5, 15 mL) with the addition of 7.5 μL of H2O2; reaction time was 30 min. The membranes were washed with distilled water, air-dried, and scanned. In places where immunological complexes developed, blue precipitate was observed. The applied dot blot test procedure ensures the elimination of non-specific interactions. Additionally, using the same SPOT synthesis procedure, a library of type IV collagen fragments was obtained. […] The gray levels of the immunological reactions were determined using ImageJ Version 1.53n7 (https://imagej.nih.gov/ij/index.html, accessed on 17 October 2021) computer imaging software.

Substance | Intensity (ability to interact with polyclonal antibodies) | Intensity (Staining Value) | interaction with polyclonal anti-EGF antibodies (in words)
H-^1NSDSECPLSH^10-matrix [A1] | − ((−), where the color intensity value was <45) | 14.8 | –
H-^2SDSECPLSHD^11-matrix [A2] | − ((−), where the color intensity value was <45) | 22.3 | –
H-^3DSECPLSHDG^12-matrix [A3] | +/− (moderately strong (+/−), for which the color intensity value was in the range of 90–45) | 71.7 | –
H-^4SECPLSHDGY^13-matrix [A4] | +/− (moderately strong (+/−), for which the color intensity value was in the range of 90–45) | 55.2 | –
H-^5ECPLSHDGYC^14-matrix [A5] | +/− (moderately strong (+/−), for which the color intensity value was in the range of 90–45) | – | –
H-^6CPLSHDGYCL^15-matrix [A6] | +/− (moderately strong (+/−), for which the color intensity value was in the range of 90–45) | – | –
H-^7PLSHDGYCLH^16-matrix [A7] | +/− (moderately strong (+/−), for which the color intensity value was in the range of 90–45) | 62.2 | –
H-^8LSHDGYCLHD^17-matrix [A8] | +/− (moderately strong (+/−), for which the color intensity value was in the range of 90–45) | 59.3 | –
H-^9SHDGYCLHDG^18-matrix [A9] | +/− (moderately strong (+/−), for which the color intensity value was in the range of 90–45) | 63.8 | –
H-^10HDGYCLHDGV^19-matrix [A10] | + (strong (+), for which the staining intensity value was in the range of 120–90) | 91.3 | –
H-^11DGYCLHDGVC^20-matrix [A11] | + (strong (+), for which the staining intensity value was in the range of 120–90) | 90.5 | –
H-^12GYCLHDGVCM^21-matrix [A12] | + (strong (+), for which the staining intensity value was in the range of 120–90) | 92.4 | –
H-^13YCLHDGVCMY^22-matrix [A13] | + (strong (+), for which the staining intensity value was in the range of 120–90) | 93.0 | –
H-^14CLHDGVCMYI^23-matrix [A14] | − ((−), where the color intensity value was <45) | 31.6 | inactive
H-^15LHDGVCMYIE^24-matrix [A15] | − ((−), where the color intensity value was <45) | 41.6 | no affinity for antibodies
H-^16HDGVCMYIEA^25-matrix [A16] | − ((−), where the color intensity value was <45) | 44.8 | low affinity
H-^17DGVCMYIEAL^26-matrix [A17] | +/− (moderately strong (+/−), for which the color intensity value was in the range of 90–45) | 88.9 | –
H-^18GVCMYIEALD^27-matrix [A18] | + (strong (+), for which the staining intensity value was in the range of 120–90) | 116.0 | –
H-^19VCMYIEALDK^28-matrix [A19] | ++ (very strong (++), for which the staining intensity value was >120) | 128.0 | –
H-^20CMYIEALDKY^29-matrix [A20] | ++ (very strong (++), for which the staining intensity value was >120) | 132.8 | –
H-^21MYIEALDKYA^30-matrix [B1] | ++ (very strong (++), for which the staining intensity value was >120) | 130.3 | –
H-^22YIEALDKYAC^31-matrix [B2] | ++ (very strong (++), for which the staining intensity value was >120) | 122.4 | –

Substance | Intensity (ability to interact with polyclonal antibodies) | Intensity (Staining Value) | interaction with polyclonal anti-EGF antibodies (in words)
H-^23IEALDKYACN^32-matrix [B3] | +/− (moderately strong (+/−), for which the color intensity value was in the range of 90–45) | 63.8 | lower affinity for antibodies
H-^24EALDKYACNC^33-matrix [B4] | − ((−), where the color intensity value was <45) | 30.5 | no affinity for antibodies
H-^25ALDKYACNCV^34-matrix [B5] | − ((−), where the color intensity value was <45) | 29.6 | –
H-^26LDKYACNCVV^35-matrix [B6] | +/− (moderately strong (+/−), for which the color intensity value was in the range of 90–45) | 46.6 | –
H-^27DKYACNCVVG^36-matrix [B7] | +/− (moderately strong (+/−), for which the color intensity value was in the range of 90–45) | 55.3 | –
H-^28KYACNCVVGY^37-matrix [B8] | +/− (moderately strong (+/−), for which the color intensity value was in the range of 90–45) | 63.5 | –
H-^29YACNCVVGYI^38-matrix [B9] | + (strong (+), for which the staining intensity value was in the range of 120–90) | 91.1 | –
H-^30ACNCVVGYIG^39-matrix [B10] | +/− (moderately strong (+/−), for which the color intensity value was in the range of 90–45) | 58.5 | –
H-^31CNCVVGYIGE^40-matrix [B11] | +/− (moderately strong (+/−), for which the color intensity value was in the range of 90–45) | 60.3 | –
H-^32NCVVGYIGER^41-matrix [B12] | +/− (moderately strong (+/−), for which the color intensity value was in the range of 90–45) | 56.3 | –
H-^33CVVGYIGERC^42-matrix [B13] | +/− (moderately strong (+/−), for which the color intensity value was in the range of 90–45) | 65.7 | –
H-^34VVGYIGERCQ^43-matrix [B14] | +/− (moderately strong (+/−), for which the color intensity value was in the range of 90–45) | 69.4 | –
H-^35VGYIGERCQY^44-matrix [B15] | + (strong (+), for which the staining intensity value was in the range of 120–90) | 91.0 | –
H-^36GYIGERCQYR^45-matrix [B16] | + (strong (+), for which the staining intensity value was in the range of 120–90) | 98.0 | –
H-^37YIGERCQYRD^46-matrix [B17] | + (strong (+), for which the staining intensity value was in the range of 120–90) | 106.2 | –
H-^38IGERCQYRDL^47-matrix [B18] | +/− (moderately strong (+/−), for which the color intensity value was in the range of 90–45) | 76.1 | –
H-^39GERCQYRDLK^48-matrix [B19] | − ((−), where the color intensity value was <45) | 28.9 | do not exhibit the ability to interact with antibodies
H-^40ERCQYRDLKW^49-matrix [B20] | – | – | do not exhibit the ability to interact with antibodies
H-^41RCQYRDLKWW^50-matrix [C1] | + (strong (+), for which the staining intensity value was in the range of 120–90) | 91.5 | moderate binding to antibodies
H-^42CQYRDLKWWE^51-matrix [C2] | + (strong (+), for which the staining intensity value was in the range of 120–90) | 91.4 | moderate binding to antibodies
H-^43QYRDLKWWEL^52-matrix [C3] | + (strong (+), for which the staining intensity value was in the range of 120–90) | 99.4 | show interactions with polyclonal anti-EGF antibodies
